Inconclusive results and toxic doses are left out. The calls were made as follows: active = survival T/C of 150% or more; inactive = T/C below 125% in these data.
System: P388 leukemia ip, CD2F1 mice, survival T/C
Assay: NCI In Vivo Anticancer Drug Screen. Data for tumor model P388 Leukemia (intraperitoneal) in CD2F1 (CDF1) mice
Conditions: endpoint: median survival time, higher = longer survival
Summary of the method: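 Mice carrying the transplanted tumor received test compound or vehicle. Survival was recorded in each group, and the value is the treated-group measurement divided by that of the vehicle-treated control group.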

Measured: T/C

C=CCC(=C)C(=O)OC
inactive: dose: 12.5 mg/kg/injection, schedule: Q01DX009 (ip), vehicle: water 103 % of control | dose: 25.0 mg/kg/injection, schedule: Q01DX009 (ip), vehicle: water 104 % of control | dose: 50.0 mg/kg/injection, schedule: Q01DX009 (ip), vehicle: water 102 % of control | dose: 100.0 mg/kg/injection, schedule: Q01DX009 (ip), vehicle: water 102 % of control | dose: 200.0 mg/kg/injection, schedule: Q01DX009 (ip), vehicle: water 103 % of control

C[P+]12CN3CN(CN(C3)C1)C2
inactive: dose: 50.0 mg/kg/injection, schedule: Q01DX009 (ip), vehicle: saline 107 % of control | dose: 100.0 mg/kg/injection, schedule: Q01DX009 (ip), vehicle: saline 107 % of control | dose: 200.0 mg/kg/injection, schedule: Q01DX009 (ip), vehicle: saline 101 % of control

NS(=O)(=O)c1ccc(N=CC2C(=O)N(c3ccccc3)N(c3ccccc3)C2=O)cc1
inactive: dose: 100.0 mg/kg/injection, schedule: Q01DX001 (ip), vehicle: Klucel (hydroxypropylcellulose) (HPC) 87 % of control | dose: 200.0 mg/kg/injection, schedule: Q01DX001 (ip), vehicle: Klucel (hydroxypropylcellulose) (HPC) 89 % of control | dose: 400.0 mg/kg/injection, schedule: Q01DX001 (ip), vehicle: Klucel (hydroxypropylcellulose) (HPC) 92 % of control

O=C1CC2(CCCC2)CC(=O)N1c1ccc(O)c(CN2CCCCC2)c1
inactive: dose: 50.0 mg/kg/injection, schedule: Q01DX009 (ip), vehicle: Klucel (hydroxypropylcellulose) (HPC) 105 % of control | dose: 100.0 mg/kg/injection, schedule: Q01DX009 (ip), vehicle: Klucel (hydroxypropylcellulose) (HPC) 100 % of control | dose: 200.0 mg/kg/injection, schedule: Q01DX009 (ip), vehicle: Klucel (hydroxypropylcellulose) (HPC) 102 % of control

NC(=O)N/N=C/Cn1ccc(=O)[nH]c1=O
inactive: dose: 50.0 mg/kg/injection, schedule: Q01DX005 (ip), vehicle: Klucel (hydroxypropylcellulose) (HPC) 99 % of control | dose: 100.0 mg/kg/injection, schedule: Q01DX005 (ip), vehicle: Klucel (hydroxypropylcellulose) (HPC) 97 % of control | dose: 200.0 mg/kg/injection, schedule: Q01DX005 (ip), vehicle: Klucel (hydroxypropylcellulose) (HPC) 90 % of control

O=NC=C1N(O)C=CN1O
inactive: dose: 25.0 mg/kg/injection, schedule: Q01DX009 (ip), vehicle: other 102 % of control | dose: 50.0 mg/kg/injection, schedule: Q01DX009 (ip), vehicle: other 101 % of control | dose: 100.0 mg/kg/injection, schedule: Q01DX009 (ip), vehicle: other 97 % of control | dose: 200.0 mg/kg/injection, schedule: Q01DX009 (ip), vehicle: other 102 % of control | dose: 400.0 mg/kg/injection, schedule: Q01DX009 (ip), vehicle: other 99 % of control

Source: PubChem BioAssay AID330 (DTP/NCI, 2004)
